A short description of the data set: Solubility in solvents (PGME or PGMEA) commonly used in semiconductor device production. As to conditions: for Solubility (g/100 g-PGMEA): solvent propylene glycol 1-monomethyl ether 2-acetate (PGMEA); for Solubility (g/100 g-PGME): solvent propylene glycol 1-monomethyl ether (PGME). The data set is classed as physicochemical. Here is the method:
In order to examine the solubilities of TMOM-TGU produced in Example 2, TMOM-DTGU produced in Example 4, and TMOM-GU as Comparative Example, these compounds were dissolved in propylene glycol 1-monomethyl ether (PGME) or propylene glycol 1-monomethyl ether 2-acetate (PGMEA), each of which is a solvent commonly used in, for example, production processes for semiconductor devices.

Structures are written as SMILES.

`COCN1C(=O)N(COC)C2C1N(COC)C(=O)N2COC` (stereo not shown) [Comparative Example, 1,3,4,6-tetrakis(methoxymethyl)glycoluril, reference compound]: the “Solubility (g/100 g-PGMEA)” value came to 12.5 g/100 g-PGMEA and the “Solubility (g/100 g-PGME)” value was determined as 20 g/100 g-PGME.
As to `COCN1C(=O)N(COC)C2C1N(COC)C(=S)N2COC` (stereo not shown) [Example 2, 1,3,4,6-tetrakis(methoxymethyl)monothioglycoluril], the “Solubility (g/100 g-PGMEA)” value is reported as 100 g/100 g-PGMEA and the “Solubility (g/100 g-PGME)” value is on record as 100 g/100 g-PGME. Besides, the “solubility in a solvent (in words)” value (conclusion from Table 1 (PGME, PGMEA)) was “particularly excellent solubility”.
For `COCN1C(=S)N(COC)C2C1N(COC)C(=S)N2COC` (stereo not shown) [Example 4, 1,3,4,6-tetrakis(methoxymethyl)dithioglycoluril], the “Solubility (g/100 g-PGMEA)” value amounted to 25 g/100 g-PGMEA and the “Solubility (g/100 g-PGME)” value worked out at 20 g/100 g-PGME.

The record behind these values is patent US11104683B2, “Thioglycoluril compound, and method for producing same” (NISSAN CHEMICAL CORPORATION, priority 2016, dated 2021).
